Measured values as given in US20240398893A1, “ANTI-CORONAVIRUS POLYPEPTIDE AS WELL AS DERIVATIVE AND APPLICATION THEREOF” (priority 2021, published 2024).

system: pseudovirus of SARS-COV-2 variant Omicron (BA.1); conditions: pseudovirus of variant Omicron (BA.1)

| SMILES | EC50 |
| --- | --- |
| CC[C@H](C)[C@H](NC(=O)CNC(=O)[C@H](CO)NC(=O)[C@@H](NC(=O)[C@H](CC(=O)O)NC(=O)CNC(=O)[C@H](Cc1ccccc1)NC(=O)[C@H](CCCCN)NC(=O)[C@@H](N)C(C)C)[C@@H](C)CC)C(=O)N[C@@H](CC(N)=O)C(=O)N[C@@H](C)C(=O)N[C@@H](CO)C(=O)N[C@H](C(=O)N[C@H](C(=O)N[C@@H](CC(N)=O)C(=O)N[C@H](C(=O)N[C@@H](CCCCN)C(=O)N[C@@H](CCC(=O)O)C(=O)N[C@@H](CCC(=O)O)C(=O)N[C@H](C(=O)N[C@@H](CC(=O)O)C(=O)N[C@@H](CCCNC(=N)N)C(=O)N[C@@H](CC(C)C)C(=O)N[C@@H](Cc1ccc(O)cc1)C(=O)N[C@@H](CCC(=O)O)C(=O)N[C@H](C(=O)N[C@H](C(=O)N[C@@H](CCCCN)C(=O)N[C@@H](CC(N)=O)C(=O)N[C@@H](CC(C)C)C(=O)N[C@@H](CC(N)=O)C(=O)N[C@@H](CCC(=O)O)C(=O)N[C@@H](CO)C(=O)N[C@@H](CC(C)C)C(=O)N[C@H](C(=O)N[C@@H](CC(=O)O)C(=O)N[C@@H](CC(C)C)C(=O)N[C@@H](CCC(N)=O)C(=O)N[C@@H](CCC(=O)O)C(=O)N[C@@H](CC(C)C)C(=O)NCC(=O)N[C@@H](CO)C(=O)NCC(=O)N[C@@H](CO)C(=O)NCC(=O)N[C@@H](CSCC(=O)O[C@H]1CC[C@@]2(C)C(=CC[C@H]3[C@@H]4CC[C@H]([C@H](C)CCCC(C)C)[C@@]4(C)CC[C@@H]32)C1)C(N)=O)[C@@H](C)CC)C(C)C)C(C)C)[C@@H](C)CC)[C@@H](C)CC)C(C)C)C(C)C [P3-3-GS-Chol] | 1730 nM |
| CC[C@H](C)[C@H](NC(=O)CNC(=O)[C@H](CO)NC(=O)[C@@H](NC(=O)[C@H](CC(=O)O)NC(=O)CNC(=O)[C@H](Cc1ccccc1)NC(=O)[C@H](CCCCN)NC(=O)[C@@H](N)C(C)C)[C@@H](C)CC)C(=O)N[C@@H](CC(N)=O)C(=O)N[C@@H](C)C(=O)N[C@@H](CO)C(=O)N[C@H](C(=O)N[C@H](C(=O)N[C@@H](CC(N)=O)C(=O)N[C@H](C(=O)N[C@@H](CCCCN)C(=O)N[C@@H](CCC(=O)O)C(=O)N[C@@H](CCC(=O)O)C(=O)N[C@H](C(=O)N[C@@H](CC(=O)O)C(=O)N[C@@H](CCCNC(=N)N)C(=O)N[C@@H](CC(C)C)C(=O)N[C@@H](Cc1ccc(O)cc1)C(=O)N[C@@H](CCC(=O)O)C(=O)N[C@H](C(=O)N[C@H](C(=O)N[C@@H](CCCCN)C(=O)N[C@@H](CC(N)=O)C(=O)N[C@@H](CC(C)C)C(=O)N[C@@H](CC(N)=O)C(=O)N[C@@H](CCC(=O)O)C(=O)N[C@@H](CO)C(=O)N[C@@H](CC(C)C)C(=O)N[C@H](C(=O)N[C@@H](CC(=O)O)C(=O)N[C@@H](CC(C)C)C(=O)N[C@@H](CCC(N)=O)C(=O)N[C@@H](CCC(=O)O)C(=O)N[C@@H](CC(C)C)C(=O)N[C@@H](CSCC(=O)NCCOCCOCCOCCOCC(=O)O[C@H]1CC[C@@]2(C)C(=CC[C@H]3[C@@H]4CC[C@H]([C@H](C)CCCC(C)C)[C@@]4(C)CC[C@@H]32)C1)C(N)=O)[C@@H](C)CC)C(C)C)C(C)C)[C@@H](C)CC)[C@@H](C)CC)C(C)C)C(C)C [P3-3-PEG-Chol] | 571 nM |
| CC[C@H](C)[C@H](NC(=O)CNC(=O)[C@H](CO)NC(=O)[C@@H](NC(=O)[C@H](CC(=O)O)NC(=O)CNC(=O)[C@H](Cc1ccccc1)NC(=O)[C@H](CCCCN)NC(=O)[C@@H](N)C(C)C)[C@@H](C)CC)C(=O)N[C@@H](CC(N)=O)C(=O)N[C@@H](C)C(=O)N[C@@H](CO)C(=O)N[C@H](C(=O)N[C@H](C(=O)N[C@@H](CC(N)=O)C(=O)N[C@H](C(=O)N[C@@H](CCCCN)C(=O)N[C@@H](CCC(=O)O)C(=O)N[C@@H](CCC(=O)O)C(=O)N[C@H](C(=O)N[C@@H](CC(=O)O)C(=O)N[C@@H](CCCNC(=N)N)C(=O)N[C@@H](CC(C)C)C(=O)N[C@@H](Cc1ccc(O)cc1)C(=O)N[C@@H](CCC(=O)O)C(=O)N[C@H](C(=O)N[C@H](C(=O)N[C@@H](CCCCN)C(=O)N[C@@H](CC(N)=O)C(=O)N[C@@H](CC(C)C)C(=O)N[C@@H](CC(N)=O)C(=O)N[C@@H](CCC(=O)O)C(=O)N[C@@H](CO)C(=O)N[C@@H](CC(C)C)C(=O)N[C@H](C(=O)N[C@@H](CC(=O)O)C(=O)N[C@@H](CC(C)C)C(=O)N[C@@H](CCC(N)=O)C(=O)N[C@@H](CCC(=O)O)C(=O)N[C@@H](CC(C)C)C(=O)O)[C@@H](C)CC)C(C)C)C(C)C)[C@@H](C)CC)[C@@H](C)CC)C(C)C)C(C)C [P3-3] | 22700 nM |
